Test results published in patent US20130011855A1, “Methods for Determining Aged Based Accumulation of Senescent Cells Using Senescense Specific DNA Damage Markers” (priority 2008, published 2013).

Tests used:
primary hepatocytes [1] = experiment: S phase index by [3H]thymidine labeling of hepatocytes isolated from exposed mice; assay type: cell-based; conditions: hepatocytes from juvenile mice exposed 3 weeks previously
Procedure: (§1) FIG. 5A Collagenase perfusion was used to isolate hepatocytes from juvenile mice exposed 3 weeks previously to AAT. Twenty-four hours prior to fixation, cells were incubated with [3H]thymidine to allow the quantitation of the S phase index after processing for autoradiography. Shown are the means plus the (standard deviations) S.D. *P<0.002 versus the controls. FIG. 5B Cells isolated as described above from mice exposed, or not exposed, to AAT were subjected to the SA-β-Gal assay after fixation. At least 100 cells were counted on each plate from 3 to 5 control mice and 5 to 6 AAT exposed mice depending on the time point. Shown are the means plus S.D. *P<0.05 versus the controls. FIG. 5C Shown is a representative bright field image of primary hepatocytes 3 days after culture. Arrows indicate the blue, peri-nuclear stained, SA β Gal-positive cells. To reduce background [3H]thymidine detection was not done in this experiment. The phase contrast image below allows better visualization of the cells, original magnification 100×. FIG. 5D Hepatocytes isolated from adult 4-month-old and 22-month-old were cultured and assayed for S phase index as described. Shown are means plus S.D. There is a lag in S phase entry in cells from these adult mice. *P<0.02 and **P<0.004. FIG. 5E Hepatocytes from young adult and aged adult mice were cultured as described and then subjected to the SA β Gal assay. […]

phospho Chk2 (T68) = experiment: Phospho Chk2 (T68) nuclear immunostaining of liver sections; assay type: in vivo, mice
Procedure: (§2) Eight to eleven-day-old F1 mice from C57BL/6, obtained from the National Institute of Aging, Aged Rodent Colonies (Bethesda, Md.), were injected intraperitoneally with AAT (Sigma-Aldrich; St. Louis, Mo.) at 2 mg/kg body weight in corn oil. […] Control gender-matched litter mates were injected with corn oil or PBS. […] Female C57BL/6 mice (4- and 22-month-old) were allowed to acclimate at least 1 week prior to usage. All procedures were done within the guidelines of the Animal Research Committee at the University of Illinois at Chicago and the “Principles of laboratory animal care” (NIH publication No. 86-23, revised 1985).
(§3) To detect DNA damage foci, frozen 5-micron liver sections were rapidly transferred to slides after sectioning, then immediately fixed in 2% paraformaldehyde PBS for 20 min, and then prepared following standard protocols. […] Foci-associated nuclei and total nuclei were counted using Image Pro Plus software (MediaCybernetics, Bethesda, Md.). Three to four mice were used for each time point and 300-500 nuclei were counted for each subject. Relative fluorescence intensity of foci in images was quantitated using the density measurement of the Image Pro Plus software with subtraction of local background levels. Four to seven mice were studied per time point with 8 to 18 53BP1/phospho ATM foci scored per mouse. […]

ATM/ATR p (S/TQ) = experiment: Relative immunofluorescent intensity of ATM/ATR p (S/TQ) foci in frozen liver sections; assay type: in vivo; conditions: single i.p. injection to juvenile mice, liver hepatocytes
Procedure: as §2, §3

[2] = test system: 53BP1 foci in hepatocytes; experiment: 53BP1 foci immunolocalization in hepatocytes of frozen liver sections; assay type: in vivo, mice; conditions: by 2.5 days after exposure
Procedure: Eight to eleven-day-old F1 mice from C57BL/6, obtained from the National Institute of Aging, Aged Rodent Colonies (Bethesda, Md.), were injected intraperitoneally with AAT (Sigma-Aldrich; St. Louis, Mo.) at 2 mg/kg body weight in corn oil. […] Control gender-matched litter mates were injected with corn oil or PBS. […] All procedures were done within the guidelines of the Animal Research Committee at the University of Illinois at Chicago and the “Principles of laboratory animal care” (NIH publication No. 86-23, revised 1985).
To detect DNA damage foci, frozen 5-micron liver sections were rapidly transferred to slides after sectioning, then immediately fixed in 2% paraformaldehyde PBS for 20 min, and then prepared following standard protocols. […] The specificity was verified by blockage with oligopeptides bearing the antigenic sequences. […] Foci-associated nuclei and total nuclei were counted using Image Pro Plus software (MediaCybernetics, Bethesda, Md.). Three to four mice were used for each time point and 300-500 nuclei were counted for each subject. Relative fluorescence intensity of foci in images was quantitated using the density measurement of the Image Pro Plus software with subtraction of local background levels. Four to seven mice were studied per time point with 8 to 18 53BP1/phospho ATM foci scored per mouse. […]

ATM p (S1987) = experiment: Relative immunofluorescent intensity of phospho ATM foci in frozen liver sections; assay type: in vivo, mice; conditions: for Relative immunofluorescent intensity of foci for ATM p (S1987): single i.p. injection to juvenile mice, liver hepatocytes; for signal strength of phospho ATM in 53BP1/phospho ATM foci: by 7 weeks after exposure
Procedure: as §2
To detect DNA damage foci, frozen 5-micron liver sections were rapidly transferred to slides after sectioning, then immediately fixed in 2% paraformaldehyde PBS for 20 min, and then prepared following standard protocols. […] The specificity was verified by blockage with oligopeptides bearing the antigenic sequences. Antiphospho ATM (S1981) (Rockland Immunochemicals, Gilbertsville, Pa.; 1:800) was a mouse antibody. Anti-rabbit and anti-mouse secondary antibodies conjugated to Cy-3 were obtained from Jackson Immunoresearch (West Grove, Pa.). Prior to mouse primary antibody application, tissues were first blocked with 1% goat anti-mouse FAB (Jackson Immunoresearch) followed by incubation with 4% BSA. Slides were counterstained with 0.2 ug/ml 4′,6-diamidino-2-phenylindole (DAPI) for 2 min prior to mounting in mowiol (Calbiochem; San Diego, Calif.) with 2% 1,4-diazobicyclo[2,2,2]octane (Sigma-Aldrich). Fluorescent 400× images were typically collected immediately after the assay. Foci-associated nuclei and total nuclei were counted using Image Pro Plus software (MediaCybernetics, Bethesda, Md.). Three to four mice were used for each time point and 300-500 nuclei were counted for each subject. Relative fluorescence intensity of foci in images was quantitated using the density measurement of the Image Pro Plus software with subtraction of local background levels. Four to seven mice were studied per time point with 8 to 18 53BP1/phospho ATM foci scored per mouse. Minimally exposed images were used. The student's t-test was used for statistical comparisons for these and other experiments. For double labeling with anti-phospho ATM (S1981) and anti-53BP1 antibodies, sections were prepared as described above, first labeling with the anti-phospho-ATM (S1981) and Cy-3 secondary antibody as above, then incubated with 4% BSA, followed by anti-53BP1 and then by Alexa 488 conjugated goat anti-rabbit antibody (Invitrogen; Carlsbad, Calif.; 1:200). All secondary antibodies were pre-adsorbed to reduce cross-reactivity as verified by negative control experiments.

p53 (S 15) = experiment: Phospho p53 (S15) immunostaining of liver sections; assay type: in vivo, mice; conditions: baseline or near baseline levels by 3-7 weeks post exposure
Procedure: as §2, §3

[3] = test system: 53BP1/phospho ATM (S1981) foci in hepatocytes; experiment: Hepatocytes positive for 53BP1/phospho ATM co-localized foci in liver sections; assay type: in vivo, mice
Procedure: as §2, §3

primary hepatocytes [4] = experiment: SA β Gal assay on hepatocytes isolated from exposed mice; assay type: cell-based; conditions: hepatocytes from exposed mice in primary culture
Procedure: as §1, with “100×.” for “100×. FIG. 5D Hepatocytes isolated from adult 4-month-old and 22-month-old were cultured and assayed for S phase index as described. Shown are means plus S.D. There is a lag in S phase entry in cells from these adult mice. *P<0.02 and **P<0.004. FIG. 5E Hepatocytes from young adult and aged adult mice were cultured as described and then subjected to the SA β Gal assay.”
DNA damage repair proteins such as Chk2 that are active in DDR are not active during senesce. […] There was no enrichment of activated phospho p53 (S15) or Chk2 (T68), while phospho ATM (S1981) positive cells were detected but the foci were of low intensity (FIG. 3, Table 1, data not shown). […]

| Compound | S phase entry of isolated hepatocytes (primary hepatocytes [1]) | phospho Chk2 positive nuclei (phospho Chk2 (T68); 0.5 and 1 week after exposure) | activation of Chk2 (T68) over time (phospho Chk2 (T68); baseline or near baseline levels by 3-7 weeks post exposure) | Relative immunofluorescent intensity of foci for ATM/ATR p (S/TQ) (ATM/ATR p (S/TQ); 3 Wk post exposure) | Relative immunofluorescent intensity of foci for ATM/ATR p (S/TQ) (ATM/ATR p (S/TQ); 7 Wk post exposure) | 53BP1 foci in hepatocytes [2] | Relative immunofluorescent intensity of foci for ATM p (S1987) (ATM p (S1987); 3 Wk post exposure) | Relative immunofluorescent intensity of foci for ATM p (S1987) (ATM p (S1987); 7 Wk post exposure) | signal strength of phospho ATM in 53BP1/phospho ATM foci (ATM p (S1987)) | activation of p53 (S 15) over time (p53 (S 15)) | nuclear foci containing both 53BP1 and phospho ATM ([3]; 1 and 3 weeks after genotoxin exposure) | cells with 53BP1/phospho ATM foci ([3]; 7 weeks after exposure, versus unexposed control mice) | SA β Gal staining of isolated hepatocytes (primary hepatocytes [4]) |
| --- | --- | --- | --- | --- | --- | --- | --- | --- | --- | --- | --- | --- | --- |
| Cc1cc(N=Nc2ccccc2C)ccc1N [AAT, aminoazotoluene] | defective for S phase entry | high levels of nuclear staining | activated only transiently | 100 ± 20.0 | 50 ± 17.5^A | Appearance of 53BP1 foci | 100 ± 4.50 | 50 ± 9.80^D | significant decreases in the signal strength of phospho ATM | activated only transiently | elevated levels of nuclear foci | still present at higher levels than in the unexposed control mice | positive for SA β Gal |
| CO[C@@]12[C@H](COC(N)=O)C3=C(C(=O)C(C)=C(N)C3=O)N1C[C@@H]1N[C@@H]12 [mitomycin C] |  |  |  |  |  |  |  |  | significant decreases in the signal strength of phospho ATM |  |  |  |  |
